Data from US20150196030A1, “HERBICIDAL COMPOSITION CONTAINING 4-AMINO-3-CHLORO-6-(4-CHLORO-2-FLUORO-3-METHOXYPHENYL) PYRIDINE-2-CARBOXYLIC ACID OR DERIVATIVES THEREOF, FLUROXYPYR OR DERIVATIVES THEREOF, AND PHENOXY AUXINS OR DERIVATIVES THEREOF” (DOW AGROSCIENCES LLC, priority 2014, published 2015).

Tests used:
Experiment in all cases: Field trial, post-emergence weed control, visual percent control
Format in all cases: in vivo
[1] = tested on: AMBTR: giant ragweed (Ambrosia trifida); settings: 49 DAA, ON, halauxifen-methyl 5, fluroxypyr-meptyl 77, 2,4-D ester 350 g ae/ha, each alone or three-way combination
Description: (§1) Nine small plot field trials were established across various ecozones in Alberta, Saskatchewan, Manitoba and Ontario, Canada, between 2011 and 2014 to evaluate potential synergy between 1) halauxifen-methyl (100 grams acid equivalent per kilogram (g ae/kg)), fluroxypyr-meptyl as Starane II EC (333 grams acid equivalent per liter (g ae/L) fluroxypyr), and MCPA 2-ethylhexyl ester (MCPA ester; 600 g ae/L), 2) the halauxifen-methyl+fluroxypyr premix (16.25 g ae/L halauxifen-methyl and 250 g ae/L fluroxypyr-meptyl) and MCPA ester (600 g ae/L), and 3) halauxifen-methyl (100 g ae/kg), fluroxypyr-meptyl as Starane II EC (333 g ae/L fluroxypyr), and 2,4-D 2-ethylhexyl ester (2,4-D ester; 660 g ae/L). In trials evaluating synergy between halauxifen-methyl, fluroxypyr-meptyl, and MCPA ester, actives were applied individually at rates of 6.5, 100, and 420 grams acid equivalent per hectare (g ae/ha), respectively, and in a three-way combination at identical rates. When applied individually, halauxifen-methyl was applied in all trials with Turbocharge adjuvant (50% mineral oil/39.5% surfactant blend) at 0.5% volume per volume (v/v). In trials evaluating synergy between the halauxifen-methyl+fluroxypyr premix, and MCPA ester, premix and MCPA ester were applied individually at rates of 82 g ae/ha (5 g ae/ha halauxifen-methyl+77 g ae/ha fluroxypyr) or 106.5 g ae/ha (6.5 g ae/ha halauxifen-methyl+100 g ae/ha fluroxypyr), and 350 or 420 g ae/ha MCPA ester, respectively, and in a two-way combination at rates of 82 g ae/ha premix+350 g ae/ha MCPA ester or […] premix+420 g ae/ha MCPA ester. When applied individually, the halauxifen-methyl+fluroxypyr premix was applied at a rate of 106.5 g ae/ha without an adjuvant, or at a rate of 82 g ae/ha with Turbocharge adjuvant at 0.5% v/v. In trials evaluating synergy between halauxifen-methyl, fluroxypyr-meptyl, and 2,4-D ester, actives were applied individually at rates of 5, 77, and 350 grams acid equivalent per hectare (g ae/ha), respectively, and in a three-way combination at identical rates. When applied individually, halauxifen-methyl was applied with Intake adjuvant (586 grams per liter (g/L) paraffinic oil/242 g/L alkoxylated alcohol non-ionic surfactants) at 1% volume per volume (v/v).
(§2) Trials were established as randomized complete blocks (RCBD) with four replicates. Individual treatments were 2-3 meters (m) wide and 10-11 m long. An untreated control was included in each trial. All trial sites had naturally occurring populations of weeds, which in some trials were augmented with additional weed seeds during trial establishment.
(§3) Herbicides were applied with backpack, bicycle, or tractor-mounted sprayers using carbon dioxide (CO2) as a propellant. All sprayers delivered a uniform spray pattern that provided thorough coverage of the foliage using a water volume of 100-200 liters per hectare (L/ha). All herbicides were applied post-emergence in the spring to early-summer. At the time of herbicide applications, spring wheat, durum wheat, and winter wheat crops were at the four-leaf to three-node stage. Broadleaf weeds were at the seedling stage at the time of herbicide applications.
(§4) Foliar damage to target pest plants was visually assessed as percent control, compared to an untreated control plot. The assessments were based on a percent visual reduction in pest plant biomass and/or stand reduction of weed population. In general, three-to-four replicates were assessed for each treatment, and the results for each experiment (trial) are presented as overall average control. The efficacy of all treatments was assessed at 13-22 days after application (DAA) for an early season rating, 23-39 DAA for a mid-season rating, and 41-84 DAA for a late-season rating. The data were statistically analyzed using various statistical methods, generally including a Tukey's HSD Factorial Analysis of Variance with a significance level of 5%. […]

[2] = tested on: TRFPR: red clover (Trifolium pratense); settings: 84 DAA, ON, halauxifen-methyl 5, fluroxypyr-meptyl 77, 2,4-D ester 350 g ae/ha, each alone or three-way combination
Description: as §1, §2, §3, §4

[3] = tested on: BRSNN: canola, volunteer (Brassica napus); settings: SK
Description: as §1, §2, §3, §4

[4] = tested on: GAETE: hemp-nettle (Galeopsis tetrahit); settings: 14 DAA, AB
Description: as §1, §2, §3, §4

[5] = tested on: POLPE: lady's-thumb (Polygonum persicaria)
Description: as §1, §2, §3, §4

[6] = tested on: STEME: chickweed, common (Stellaria media); settings: 59 DAA, AB
Description: as §1, §2, §3, §4

[7] = tested on: AMBEL: ragweed, common (Ambrosia artemisiifolia); settings: 28 DAA, ON, premix 5 + 77 (82) g ae/ha, MCPA ester 350 g ae/ha, alone or combined
Description: as §1, §2, §3, §4

[8] = tested on: ARTAB: absinth wormwood (Artemisia absinthium); settings: 47 DAA, MB, premix 6.5 + 100 (106.5) g ae/ha, MCPA ester 420 g ae/ha, alone or combined
Description: as §1, §2, §3, §4

[9] = tested on: POLCO: wild buckwheat (Polygonum convolvulus); settings: premix 6.5 + 100 (106.5) g ae/ha, MCPA ester 420 g ae/ha, alone or combined
Description: as §1, §2, §3, §4

[10] = 14 DAA, halauxifen-methyl 6.5, fluroxypyr-meptyl 100, MCPA ester 420 g ae/ha, each alone or three-way combination
[11] = 33 DAA, halauxifen-methyl 6.5, fluroxypyr-meptyl 100, MCPA ester 420 g ae/ha, each alone or three-way combination
[12] = halauxifen-methyl 6.5, fluroxypyr-meptyl 100, MCPA ester 420 g ae/ha, each alone or three-way combination
[13] = 14 DAA, AB, halauxifen-methyl 6.5, fluroxypyr-meptyl 100, MCPA ester 420 g ae/ha, each alone or three-way combination
[14] = 49 DAA, AB, halauxifen-methyl 6.5, fluroxypyr-meptyl 100, MCPA ester 420 g ae/ha, each alone or three-way combination
[15] = 57 DAA, AB, halauxifen-methyl 6.5, fluroxypyr-meptyl 100, MCPA ester 420 g ae/ha, each alone or three-way combination
[16] = 59 DAA, AB, halauxifen-methyl 6.5, fluroxypyr-meptyl 100, MCPA ester 420 g ae/ha, each alone or three-way combination
[17] = SK, 49 DAA or 57 DAA, halauxifen-methyl 6.5, fluroxypyr-meptyl 100, MCPA ester 420 g ae/ha, each alone or three-way combination
[18] = premix 6.5 + 100 (106.5) g ae/ha, MCPA ester 420 g ae/ha, alone or combined

CCCCC(CC)COC(=O)COc1ccc(Cl)cc1Cl (centres unmarked) [2,4-D ester, 2-ethylhexyl(2,4-dichlorophenoxy)acetate]
Obs: Observed percent weed control [1]: 83%
Obs: Observed percent weed control [2]: 7.4%

CCCCCCC(C)OC(=O)COc1nc(F)c(Cl)c(N)c1Cl (centres unmarked) [Fluroxypyr-meptyl, 1-methylheptyl 2-[(4-amino-3,5-dichloro-6-fluoro-2-pyridinyl)oxy]acetate]
Obs: Observed percent weed control [1]: 21.7%
Obs: Observed percent weed control [3, 10]: 30%
Obs: Observed percent weed control [3, 11]: 20%
Obs: Observed percent weed control [4, 12]: 39%
Obs: Observed percent weed control [5, 13]: 0%
Obs: Observed percent weed control [5, 14]: 0%
Obs: Observed percent weed control [5, 15]: 23%
Obs: Observed percent weed control [5, 16]: 61%
Obs: Observed percent weed control [5, 17]: 25%
Obs: Observed percent weed control [6, 12]: 15%
Obs: Observed percent weed control [2]: 12.4%

COC(=O)c1nc(-c2ccc(Cl)c(OC)c2F)cc(N)c1Cl [Halauxifen-methyl, methyl 4-amino-3-chloro-6-(4-chloro-2-fluoro-3-methoxyphenyl)-2-pyridinecarboxylate]
Obs: Observed percent weed control [1]: 20%
Obs: Observed percent weed control [3, 10]: 20%
Obs: Observed percent weed control [3, 11]: 15%
Obs: Observed percent weed control [4, 12]: 79%
Obs: Observed percent weed control [5, 13]: 0%
Obs: Observed percent weed control [5, 14]: 0%
Obs: Observed percent weed control [5, 15]: 0%
Obs: Observed percent weed control [5, 16]: 33%
Obs: Observed percent weed control [5, 17]: 10%
Obs: Observed percent weed control [6, 12]: 24%
Obs: Observed percent weed control [2]: 15%

CCCCC(CC)COC(=O)COc1ccc(Cl)cc1C (centres unmarked) [MCPA ester, 2-ethylhexyl 2-(4-chloro-2-methylphenoxy)acetate]
Obs: Observed percent weed control [7]: 15%
Obs: Observed percent weed control [8]: 0%
Obs: Observed percent weed control [3, 10]: 80%
Obs: Observed percent weed control [3, 11]: 95%
Obs: Observed percent weed control ([3]; 33 DAA, premix 6.5 + 100 (106.5) g ae/ha, MCPA ester 420 g ae/ha, alone or combined): 95%
Obs: Observed percent weed control [4, 12]: 31%
Obs: Observed percent weed control [4, 18]: 31%
Obs: Observed percent weed control ([9]; 35 DAA, MB): 0%
Obs: Observed percent weed control ([9]; 47 DAA, MB): 0%
Obs: Observed percent weed control ([9]; 63 DAA, AB): 43%
Obs: Observed percent weed control [5, 13]: 0%
Obs: Observed percent weed control ([5]; 14 DAA, MB, premix 5 + 77 (82) g ae/ha, MCPA ester 350 g ae/ha, alone or combined): 38%
Obs: Observed percent weed control ([5]; 14 DAA, MB, premix 6.5 + 100 (106.5) g ae/ha, MCPA ester 420 g ae/ha, alone or combined): 38%
Obs: Observed percent weed control ([5]; 34 DAA, MB, premix 5 + 77 (82) g ae/ha, MCPA ester 350 g ae/ha, alone or combined): 40%
Obs: Observed percent weed control ([5]; 34 DAA, MB, premix 6.5 + 100 (106.5) g ae/ha, MCPA ester 420 g ae/ha, alone or combined): 40%
Obs: Observed percent weed control ([5]; 49 DAA (likely), MB, premix 6.5 + 100 (106.5) g ae/ha, MCPA ester 420 g ae/ha, alone or combined): 27%
Obs: Observed percent weed control [5, 14]: 0%
Obs: Observed percent weed control ([5]; 49 DAA, AB, premix 6.5 + 100 (106.5) g ae/ha, MCPA ester 420 g ae/ha, alone or combined): 0%
Obs: Observed percent weed control ([5]; 54 DAA, MB, premix 6.5 + 100 (106.5) g ae/ha, MCPA ester 420 g ae/ha, alone or combined): 38%
Obs: Observed percent weed control [5, 15]: 0%
Obs: Observed percent weed control ([5]; 57 DAA, AB, premix 6.5 + 100 (106.5) g ae/ha, MCPA ester 420 g ae/ha, alone or combined): 0%
Obs: Observed percent weed control [5, 16]: 35%
Obs: Observed percent weed control ([5]; 59 DAA, AB, premix 6.5 + 100 (106.5) g ae/ha, MCPA ester 420 g ae/ha, alone or combined): 35%
Obs: Observed percent weed control [5, 17]: 30%
Obs: Observed percent weed control [6, 12]: 0%
Obs: Observed percent weed control [6, 18]: 0%
